Data published in ChEMBL document CHEMBL3286140, “Synthesis and biological evaluation of salpichrolide analogs as antiestrogenic agents” (Eur J Med Chem, 2014).
Activity calls are given as the source filed them. No cut-off for these calls is given here.

Legend:
[1] = system: MCF7; assay: Inhibition of 17beta-estradiol-induced in ERalpha positive human MCF7 cells proliferation assessed as [3H]-thymidine incorporation after 72 hrs by liquid scintillation counting; type: functional, cell-based
[2] = system: MCF7; assay: Inhibition of 17beta-estradiol-induced in ERalpha positive human MCF7 cells proliferation assessed as [3H]-thymidine incorporation at 1 uM after 72 hrs by liquid scintillation counting; type: functional, cell-based
[3] = system: MDA-MB-231; assay: Inhibition of 17beta-estradiol-induced in ERalpha negative human MDA-MB-231 cells proliferation assessed as [3H]-thymidine incorporation after 72 hrs by liquid scintillation counting; type: functional, cell-based
[4] = system: MCF7; assay: Inhibition of 17beta-estradiol-induced in ERalpha positive human MCF7 cells proliferation assessed as [3H]-thymidine incorporation at 100 nM after 72 hrs by liquid scintillation counting; type: functional, cell-based
[5] = system: MDA-MB-231; assay: Cytotoxicity against ERalpha negative human MDA-MB-231 cells at 10 nM and 1 uM; type: cell-based; details: mda-mb-231, 0.01 µM
[6] = system: MCF7; assay: Cytotoxicity against ERalpha positive human MCF7 cells at 10 nM and 1 uM; type: cell-based; details: mcf7, 0.01 µM
[7] = system: MCF7; assay: Inhibition of 17beta-estradiol-induced in ERalpha positive human MCF7 cells proliferation assessed as [3H]-thymidine incorporation at 10 nM after 72 hrs by liquid scintillation counting; type: functional, cell-based

`C[C@@H](c1ccc2c(c1)CC[C@H]1[C@H]2C[C@@H]2O[C@@]23CC=C[C@H](O)[C@]13C)[C@H]1C[C@]2(C)O[C@]2(C)[C@H](O)O1` was tested, and the IC50 [1] was 18 nM.
For `CC(=O)c1ccc2c(c1)CC[C@H]1[C@H]2C[C@H]2O[C@]23C[C@@H](O)CC[C@]13C`, the inhibition [2] was “inactive”.
With `CC(=O)c1ccc2c(c1)CC[C@H]1[C@H]2C[C@@H]2O[C@@]23C[C@@H](O)CC[C@]13C` the inhibition [1] was “inactive”.
With `CC(=O)c1ccc2c(c1)CC[C@H]1[C@H]2CC[C@H]2C[C@@H](O)CC[C@@]21C` the inhibition [3] was “inactive”, the inhibition [4] was “Active” and the IC50 [1] was 330 nM.
In the case of `CC(=O)c1ccc2c(c1)CC[C@H]1[C@H]2CC[C@H]2CC=CC(=O)[C@@]21C`, the inhibition [3] is reported as “inactive”, the inhibition [4] is reported as “Active” and the IC50 [1] is reported as 50 nM.
For `CC(=O)c1ccc2c(c1)CC[C@H]1[C@H]2CC[C@H]2CC=C[C@H](O)[C@@]21C`, the inhibition [2] was “inactive”.
With `C[C@@H](c1cc(O)c2c(c1)CC[C@H]1[C@H]2C[C@@H]2O[C@@]23CC=CC(=O)[C@]13C)[C@@H]1C[C@@H]2O[C@@H]2[C@H](O)O1` [SALPICHROLIDE G] the Activity [5] was “Toxic”, the Activity [6] was “Toxic” and the IC50 [1] was 140 nM.
For `C[C@]12CC[C@@H]3c4ccc(O)cc4C[C@@H](CCCCCCCCC[S+]([O-])CCCC(F)(F)C(F)(F)F)[C@H]3[C@@H]1CC[C@@H]2O` (stereo not given in full) [FULVESTRANT], the inhibition [7] was “Active” and the IC50 [1] was 1.9 nM.
